Reference: patent publication US12258360B2, “Compositions and methods for treatment of anticancer-drug resistant cancers” (THE GEORGE WASHINGTON UNIVERSITY, priority 2020, dated 2025)

What was measured:
[1] = tested on: recruitment of CtIP to DSB sites in IGROV1 cells; assay: immunofluorescence assay of CtIP co-localization with γH2AX after micro-irradiation; type: cell-based, human; details: 1 μM, 30 minutes post irradiation
Description: H2AX (H2A histone family member X) becomes phosphorylated on serine 139 (wherein the phosphorylated form is then called […]) as a reaction on DNA double-strand breaks (DSB). And-1 regulates DSB end resection by establishing a condition or acting as a platform for recruitment of the tumor suppressor protein CtIP—a CtBP (carboxy-terminal binding protein)-interacting protein, to the DSB sites. […] In brief, IGROV1 cells were cultured on coverslips coated with 0.01% of poly-L-lysine. After treatment, the cells were then washed once with PBS, then pre-extracted with 0.5% Triton X-100 extraction buffer (10 mM PIPES pH 7.0, 100 mM NaCl, 3 mM MgCl2 and 300 mM sucrose) on ice for 5 minutes. After washing with PBS, cells were fixed with 4% paraformaldehyde in PBS for 15 minutes. Cells were then washed and incubated for 10 minutes in blocking buffer (PBS containing 3% BSA and 0.02% Tween-20) and subsequently incubated for 1 hour with a primary antibody at room temperature. Cells were washed three times with PBS-T (PBS containing 0.02% Tween-20) and then incubated with a secondary antibody (e.g., rabbit Alexa Fluor-594 and mouse Alexa Fluor-488). After washing with PBS-T, cells were mounted with Fluoromount G containing DAPI (4′,6-diamidino-2-phenylindole—a fluorescent stain that binds strongly to adenine-thymine-rich regions in DNA). Slides were then imaged using a Nikon Eclipse 80i microscope. […]

And-1 [2] = target: T1, And-1 (Homo sapiens, UniProt O75717); assay: cellular thermal shift assay; type: binding; set-up: endogenous in cells; host or cells: IGROV1 CR; details: cells incubated 8 hours, compared to DMSO
T1 sequence (O75717 1-1129): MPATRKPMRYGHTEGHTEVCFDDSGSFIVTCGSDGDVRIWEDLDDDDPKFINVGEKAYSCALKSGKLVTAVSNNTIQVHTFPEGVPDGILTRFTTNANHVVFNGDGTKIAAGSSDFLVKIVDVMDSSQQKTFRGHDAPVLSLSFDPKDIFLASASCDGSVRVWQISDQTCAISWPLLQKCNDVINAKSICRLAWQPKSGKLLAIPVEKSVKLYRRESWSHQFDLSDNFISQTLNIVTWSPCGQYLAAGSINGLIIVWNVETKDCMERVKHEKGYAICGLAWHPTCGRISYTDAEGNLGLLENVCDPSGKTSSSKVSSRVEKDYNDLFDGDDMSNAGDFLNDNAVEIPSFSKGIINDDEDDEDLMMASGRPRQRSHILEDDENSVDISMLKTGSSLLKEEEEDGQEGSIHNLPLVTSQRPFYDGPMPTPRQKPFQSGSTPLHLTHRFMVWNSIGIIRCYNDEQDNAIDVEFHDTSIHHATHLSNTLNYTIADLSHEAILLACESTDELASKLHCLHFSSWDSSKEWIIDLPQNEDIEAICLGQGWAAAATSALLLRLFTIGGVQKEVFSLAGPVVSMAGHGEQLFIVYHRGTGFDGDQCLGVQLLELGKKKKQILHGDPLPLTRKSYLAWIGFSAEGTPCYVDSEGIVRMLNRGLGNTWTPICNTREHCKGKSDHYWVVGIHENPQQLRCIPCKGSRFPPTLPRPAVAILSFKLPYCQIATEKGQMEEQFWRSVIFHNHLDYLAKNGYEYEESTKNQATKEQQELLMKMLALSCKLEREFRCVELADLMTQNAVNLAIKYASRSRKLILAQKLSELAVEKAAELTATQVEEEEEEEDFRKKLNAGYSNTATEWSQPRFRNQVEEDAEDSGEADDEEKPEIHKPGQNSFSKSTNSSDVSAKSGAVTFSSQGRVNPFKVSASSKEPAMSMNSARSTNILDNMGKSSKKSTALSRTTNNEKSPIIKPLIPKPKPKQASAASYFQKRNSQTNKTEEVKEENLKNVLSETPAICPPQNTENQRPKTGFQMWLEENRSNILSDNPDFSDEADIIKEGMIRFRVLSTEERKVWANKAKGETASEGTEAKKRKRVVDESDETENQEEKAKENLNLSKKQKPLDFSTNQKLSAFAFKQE
Description: To explore whether And-1 inhibitors directly bind to And-1, cellular thermal shift assays were performed in which a small molecule binds to a protein resulting in thermal stabilization of the protein. Briefly, cells were incubated with MG132 (10 μM), DHS, CH3, CH10 or DMSO for 8 hours. After washing with ice-cold PBS (suppled with Protease Inhibitor Cocktail), cells were aliquoted into PCR tubes (100 μL each) and then incubated at different temperatures (from 25° C. to 71° C.) for 4 minutes. After the cells were frozen and thawed twice using liquid nitrogen, proteins were isolated from the cells after centrifugation and incubated at 70° C. for 10 minutes for analysis by western blotting.

And-1 [3] = target: T1, And-1; assay: fluorescent boron sensor DAHMI staining of live IGROV1 cells; type: cell-based; set-up: endogenous in cells; host or cells: IGROV1 CR
Text: Boron-containing compounds can be visualized using a fluorescent boron sensor DAHMI. To determine the binding specificity of CH3 to And-1, the distribution of CH3 in live cells was examined using DAHMI.

And-1 [4] = target: T1, And-1; assay: immunoprecipitation of And-1 and anti-ubiquitin immunoblot in IGROV1 cells; type: cell-based; set-up: endogenous in cells; host or cells: IGROV1 CR
Description: IGROV1 cells were treated with CH3 in the absence and presence of the 26S proteasome inhibitor MG132 (Benzyl N-[(2S)-4-methyl-1-[[(2S)-4-methyl-1-[[(2S)-4-methyl-1-oxopentan-2-yl]amino]-1-oxopentan-2-yl]amino]-1-oxopentan-2-yl]carbamate). […] Protein degradation through the proteasome requires conjugation of one or more ubiquitin molecules to the target. To address whether And-1 was modified by ubiquitin in IGROV1 cells treated with CH3, And-1 protein was immunoprecipitated and probed with anti-ubiquitin antibody.

## OB1OCc2cc(/C=C/c3ccc(Cl)c(Cl)c3)ccc21 [CH3]
[1]
  recruitment of CtIP to DSB sites induced by micro-irradiation: significantly decreased
And-1 [2]
  thermal stabilization of And-1 protein at higher temperatures: stabilized
And-1 [3]
  distribution of compound in live cells (DAHMI): detected in nuclei
And-1 [4]
  ubiquitinated And-1 bands: increased
